Laboratory results: ChEMBL document CHEMBL1157088, “Gukulenins A and B, cytotoxic tetraterpenoids from the marine sponge Phorbas gukulensis” (J Nat Prod, 2010)

Experiments:
Format in all cases: functional, cell-based
MKN-45 = assay: Cytotoxicity against human MKN45 cells after 24 hrs by MTT assay; conditions: MKN-45, 24 h
SN12C = assay: Cytotoxicity against human SN12C cells after 24 hrs by MTT assay
HCT-116 = assay: Cytotoxicity against human HCT116 cells after 24 hrs by MTT assay; conditions: HCT-116, 24 h
FaDu = assay: Cytotoxicity against human FADU cells after 24 hrs by MTT assay

| SMILES | IC50 (MKN-45) | IC50 (SN12C) | IC50 (HCT-116) | IC50 (FaDu) |
| --- | --- | --- | --- | --- |
| CC(=O)O[C@@H](CO)[C@]1(C)CC[C@H](C(C)C)[C@@H]1c1cc([C@]2(O)Cc3cc(O)c(=O)c(C)c4c3[C@@H](O2)[C@H](O)[C@]2(C)CC[C@H](C(C)C)[C@H]42)cc(O)c(=O)c1C [GUKULENIN B] | 720 nM | 610 nM | 550 nM | 630 nM |
| CC(=O)O[C@@H](C=O)[C@]1(C)CC[C@H](C(C)C)[C@@H]1c1cc([C@]2(O)Cc3cc(O)c(=O)c(C)c4c3[C@@H](O2)[C@H](O)[C@]2(C)CC[C@H](C(C)C)[C@H]42)cc(O)c(=O)c1C [GUKULENIN A] | 130 nM | 92 nM | 62 nM | 57 nM |
